# Experiments:
# Assay in all cases: 72-hour CellTiter-Glo 2.0 growth inhibition screen (single agent, 9x9 combination dose matrix)
# Type in all cases: cell-based
# HCC1171 = details: HCC1171, Lung, 72 h
# HCC44 = details: HCC44, Lung, 72 h
# HPAF-II = details: HPAF-II, Pancreas, 72 h
# NCI-H358 = details: NCl-H358, Lung, 72 h
# TOV-21G = details: TOV-21G, Ovary, 72 h
# [1] = Additional Single Agent Responses (inhibition, % I)
# [2] = Additional Single Agent Responses
# [3] = growth inhibition (GI) curve, single agent
# [4] = growth inhibition (GI), AUC, single agent
# [5] = growth inhibition (GI), single agent
compound,measurement,setting,value
CN1CC[C@@H](c2c(O)cc(O)c3c(=O)cc(-c4ccc(C(F)(F)F)cc4Cl)oc23)[C@@H]1CO [MEI-522(Voruciclib)],EC50,HCC1171; [1],680 nM
same,IC50,HCC1171; [1],3030 nM
same,Response Area,HCC1171; [1],1.62
same,Max Response (% I),HCC1171; [2],51 % I
same,EC50,HCC1171; [3],674 nM
same,GI50,HCC1171; [3],734 nM
same,Response Area,HCC1171; [4],2.84
same,Max Response (% GI),HCC1171; [5],89 % GI
same,EC50,HCC44; [1],770 nM
same,IC50,HCC44; [1],829 nM
same,Response Area,HCC44; [1],2.85
same,Max Response (% I),HCC44; [2],91 % I
same,EC50,HCC44; [3],1210 nM
same,GI50,HCC44; [3],730 nM
same,Response Area,HCC44; [4],4.97
same,Max Response (% GI),HCC44; [5],161 % GI
same,EC50,HPAF-II; [1],1310 nM
same,IC50,HPAF-II; [1],1880 nM
same,Response Area,HPAF-II; [1],2.09
same,Max Response (% I),HPAF-II; [2],72 % I
same,EC50,HPAF-II; [3],1330 nM
same,GI50,HPAF-II; [3],1340 nM
same,Response Area,HPAF-II; [4],2.84
same,Max Response (% GI),HPAF-II; [5],97 % GI
same,EC50,NCI-H358; [1],591 nM
same,IC50,NCI-H358; [1],628 nM
same,Response Area,NCI-H358; [1],2.50
same,Max Response (% I),NCI-H358; [2],85 % I
same,EC50,NCI-H358; [3],598 nM
same,GI50,NCI-H358; [3],585 nM
same,Response Area,NCI-H358; [4],3.61
same,Max Response (% GI),NCI-H358; [5],137 % GI
same,EC50,TOV-21G; [1],1660 nM
same,IC50,TOV-21G; [1],1730 nM
same,Response Area,TOV-21G; [1],2.63
same,Max Response (% I),TOV-21G; [2],95 % I
same,EC50,TOV-21G; [3],1980 nM
same,GI50,TOV-21G; [3],1570 nM
same,Response Area,TOV-21G; [4],4.89
same,Max Response (% GI),TOV-21G; [5],181 % GI

# From patent US20240016781A1, “TREATMENT OF KRAS MUTANT CANCERS” (MEI Pharma, Inc., priority 2020, published 2024)
